Assay [1] deals with protein expression of cyclin D1, c-myc, ABC, total β-catenin. Briefly: Western blot analysis in SW480 cells. The assay is classed as cell-based. The note with it: SW480, 24 h, FIG. 3. The method, then:
Protein expression levels of cyclin D1, c-myc, the active form of β-catenin (ABC), and total β-catenin in SW480 cells were examined by Western blot analysis (FIG. 3). […] Western blotting. SW480 cells at 1×10^6 cells/[…] were treated with different concentrations of 4 for 24 h. Cells were lysed in buffer containing 50 mM Tris (pH 7.4), 150 mM NaCl, 1% Nonidet P-40, 0.5% sodium deoxycholate, 0.1% SDS, and protease inhibitors. After centrifugation at 12,000 rpm for 20 min at 4° C., the supernatant was loaded onto an 8% SDS polyacrylamide gel for electrophoretic analysis. Separated proteins were transferred onto nitrocellulose membranes for immunoblot analysis. The antibodies against total β-catenin (610153, BD Biosciences, most of which is phosphorylated β-catenin and represents the E-cadherin bound pool), the active form of β-catenin (ABC, 05-665, EMD Millipore, dephosphorylated at positions S37 and T41 of β-catenin), cyclin D1 (sc-853, Santa Cruz Biotechnology, Inc.), c-myc (D84C12, Cell Signaling), and β-tubulin (sc-55529, Santa Cruz Biotechnology, Inc) were incubated with the membranes overnight at 4° C. respectively. IRDye 680LT goat anti-mouse IgG (827-11080, LiCOR) or IRDye 800CW goat anti-rabbit IgG (827-08365, LiCOR) was used as the secondary antibody. The images were detected by the Odyssey Infrared Imaging System (LiCOR). Experiments were performed in duplicate.

Assay [2] deals with FOPFlash (three mutant Tcf4 binding sites) luciferase reporter. Briefly: FOPFlash luciferase reporter assay. Format: cell-based. The note with it: FIG. 1. The method, then:
Cell transfection and luciferase assay. FuGENE6 (E269A, Promega) 96 well plate format was used for the transfection of HEK293 and SW480 cells according to the manufacturer's instruction. HEK293 cells were co-transfected with 45 ng of TOPFlash or FOPFlash reporter gene, 135 ng pcDNA3.1-β-catenin, and 20 ng of pCMV-RL normalization reporter gene. SW480 cells were co-transfected with 60 ng of the TOPFlash or FOPFlash reporter gene and 40 ng of pCMV-RL normalization reporter. Cells were cultured in DMEM and 10% FBS at 37° C. for 24 h, and different concentrations of inhibitors or DMSO was added. After 24 h, the luciferase reporter activity was measured using the Dual-Glo system (E2940, Promega). Normalized luciferase activity in response to the treatment with 4 and 5 was compared with that obtained from the cells treated with DMSO. Experiments were performed in triplicate.

Assay [3] addresses T1, β-catenin/BCL9 (Homo sapiens, UniProt P35222).
T1 construct: Full-length β-catenin and (residues 1-781) were cloned into a pET-28b vector carrying a C-terminal 6× histidine; made in house; host or cells: E. coli BL21 DE3
T1 sequence (P35222 1-781): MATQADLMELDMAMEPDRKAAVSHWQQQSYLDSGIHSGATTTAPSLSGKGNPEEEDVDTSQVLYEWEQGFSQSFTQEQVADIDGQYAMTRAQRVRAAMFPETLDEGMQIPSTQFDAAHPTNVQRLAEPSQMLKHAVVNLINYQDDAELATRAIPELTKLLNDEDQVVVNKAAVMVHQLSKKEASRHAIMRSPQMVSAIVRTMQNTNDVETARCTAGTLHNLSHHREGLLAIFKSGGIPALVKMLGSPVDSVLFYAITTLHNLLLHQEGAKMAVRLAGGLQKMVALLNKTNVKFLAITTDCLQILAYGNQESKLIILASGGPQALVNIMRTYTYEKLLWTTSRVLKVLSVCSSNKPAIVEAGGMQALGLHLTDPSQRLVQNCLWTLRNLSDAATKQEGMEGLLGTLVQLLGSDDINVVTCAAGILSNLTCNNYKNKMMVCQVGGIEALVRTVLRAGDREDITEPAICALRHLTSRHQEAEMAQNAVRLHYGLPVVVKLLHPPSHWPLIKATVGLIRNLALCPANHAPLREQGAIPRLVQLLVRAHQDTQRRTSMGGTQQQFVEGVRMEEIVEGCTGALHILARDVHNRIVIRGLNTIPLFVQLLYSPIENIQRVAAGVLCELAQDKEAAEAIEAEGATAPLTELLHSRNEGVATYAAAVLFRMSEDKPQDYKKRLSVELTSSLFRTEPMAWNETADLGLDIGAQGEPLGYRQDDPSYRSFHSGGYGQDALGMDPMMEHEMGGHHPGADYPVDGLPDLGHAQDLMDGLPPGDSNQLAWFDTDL
Description: AlphaScreen competitive inhibition assay, β-catenin/BCL9 PPI. Format: binding. The note with it: for Ki: AlphaScreen. The text has this:
The biochemical AlphaScreen assay was employed to evaluate the inhibitory potency of these two final products for disruption of the β-catenin/BCL9 PPI.
BCL9 peptide synthesis and purification. Human BCL9 (residues 350-375), N-terminally biotinylated human BCL9 (residues 350-375), human E-cadherin (residues 824-877), and N-terminally biotinylated human E-cadherin (residues 824-877) were synthesized by InnoPep Inc. (San Diego, Calif., www.innopep.com). All synthesized peptides were purified by HPLC with purity >95%. The structures were validated by LC/MS. The sequences are as follows (Ahx, 6-aminohexanoic acid).
For the β-catenin/BCL9 assay, 5 nM of biotinylated BCL9 and 40 nM of His6-tagged β-catenin were incubated in assay buffer at 4° C. for 30 min. For the β-catenin/E-cadherin assay, 10 nM of biotinylated human E-cadherin, and 40 nM of His6-tagged human β-catenin were added and incubated in assay buffer at 4° C. for 30 min. Different concentrations of the tested peptide or inhibitor were added and incubated in 20 μL assay buffer at 4° C. for another 1.5 h. All of the above assay plates were covered and gently mixed on an orbital shaker. The donor and acceptor beads were then added to the plates to a final concentration of 10 μg/mL in 25 μL assay buffer. The mixture was incubated for 1 h at 4° C. before detection. The IC50 value was determined by nonlinear least-square analysis of GraphPad Prism 5.0. The inhibition constant (Ki) values were derived from the IC50 values using a method reported by Nikolovska-Coleska et al (Nikolovska-Coleska, Z.; Wang, R.; Fang, X.; Pan, H.; Tomita, Y.; Li, P.; Roller, P. P.; Krajewski, K.; Saito, N. G.; Stuckey, J. A.; Wang, S. Development and optimization of a binding assay for the XIAP BIR3 domain using fluorescence polarization, Anal. Biochem. 2004, 332, 261-273.). The assays were conducted under the conditions required by Nikolovska-Coleska et al.'s equation for determining the Ki values. All of the experiments were performed in triplicate. The results were expressed as mean±standard deviation. The inhibitor selectivity for, β-catenin/BCL9 over, β-catenin/E-cahderin interactions was defined as the ratio of the respective Ki value of β-catenin/E-cadherin interactions over that of β-catenin/BCL9 interactions.
A general note: Bead proximity is the source of the signal in Alpha formats.

This is an account of results in patent publication US20220411414A1, “INHIBITORS FOR THE B-CATENIN/B-CELL LYMPHOMA 9 (BCL9) PROTEIN-PROTEIN INTERACTION” (H. LEE MOFFITT CANCER CENTER AND RESEARCH INSTITUTE, INC., priority 2018, published 2022).

As a reminder, the Ki is the dissociation constant of the complex between target and ligand, obtained from inhibition or displacement. Higher therefore signals weaker binding.

On to `Cl.Cl.O=C(Nc1ccc(O[C@@H]2CCNC2)c(-c2cccc(-c3nn[nH]n3)c2)c1)c1ccc(O[C@H]2CCNC2)c(-c2ccc(F)c(F)c2)c1` [Compound 4, 3′,4′-difluoro-6-(((S)-pyrrolidin-3-yl)oxy)-N-(6-(((R)-pyrrolidin-3-yl)oxy)-3′-(2H-tetrazol-5-yl)-[1,1′-biphenyl]-3-yl)-[1,1′-biphenyl]-3-carboxamide dihydrochloride], for which, in assay [1], the “E-cadherin-bound β-catenin (total β-catenin)” value is listed as “had no effect”, the “activated β-catenin (ABC) in the cell nucleus” value is on record as “reduced”, the “protein expression level of c-myc” value is on record as “significantly reduced” and the “protein expression level of cyclin D1” value was “significantly reduced”. The FOPFlash luciferase activity result in assay [2] is “did not inhibit”. Moreover, the “selectivity for β-catenin/BCL9 over β-catenin/E-cadherin PPIs (in words)” value in assay [3] (AlphaScreen biochemical assay) is given as “exceptionally high selectivity”. Besides, the Ki in assay [3] (Table 1, mean ± SD (n = 3)) is 470 ± 140 nM. This compound returned a Ki in assay [3] (Table 2, mean ± SD (n = 3)) of 470 ± 140 nM. The “Selectivity BCL9/cadherin” value in assay [3] (ratio of Ki β-catenin/E-cadherin over Ki β-catenin/BCL9) is on record as greater than 1900.
